# Measurements published in ChEMBL document CHEMBL3044788, “α-(Substituted-phenoxyacetoxy)-α-heterocyclylmethylphosphonates: synthesis, herbicidal activity, inhibition on pyruvate dehydrogenase complex (PDHc), and application as postemergent herbicide against broadleaf weeds” (J Agric Food Chem, 2013).
# Assays:
# Polygonum aviculare [1] = assay: Herbicidal activity against Polygonum aviculare assessed as relative growth inhibition at 900 g/ha in greenhouse by post-emergence herbicidal activity assay; format: functional; details: read-out: GI
# Polygonum aviculare [2] = assay: Herbicidal activity against Polygonum aviculare assessed as relative growth inhibition at 300 g/ha in greenhouse by post-emergence herbicidal activity assay; format: functional; details: read-out: GI
# Chenopodium album [3] = assay: Herbicidal activity against Chenopodium album assessed as relative growth inhibition at 50 g/ha in greenhouse by post-emergence herbicidal activity assay; format: functional; details: read-out: GI
# Oryza sativa = assay: Herbicidal activity against Oryza sativa (rice) assessed as relative growth inhibition at 900 g/ha in greenhouse by postemergence herbicidal activity assay; format: organism-based; details: in vivo, other
# [4] = Toxicity in percutaneously dosed Rattus norvegicus (rat); format: organism-based; details: in vivo, topical or ocular
# Beta vulgaris [5] = assay: Herbicidal activity against Beta vulgaris assessed as relative growth inhibition at 200 g/ha in greenhouse by post-emergence herbicidal activity assay; format: functional; details: read-out: GI
# Beta vulgaris [6] = assay: Herbicidal activity against Beta vulgaris assessed as relative growth inhibition at 50 g/ha in greenhouse by post-emergence herbicidal activity assay; format: functional; details: read-out: GI
# Abutilon theophrasti = assay: Herbicidal activity against two to three-leaf stage Abutilon theophrasti (velvetleaf) assessed as inhibition of plant growth at 150 g/ha in greenhouse by post-emergence herbicidal activity assay; format: functional; details: read-out: GI
# Zea mays [7] = assay: Herbicidal activity against Zea mays (maize) assessed as relative growth inhibition at 900 g/ha in greenhouse by postemergence herbicidal activity assay; format: organism-based; details: in vivo, other
# Amaranthus blitum [8] = assay: Herbicidal activity against Amaranthus blitum assessed as relative growth inhibition at 200 g/ha in greenhouse by post-emergence herbicidal activity assay; format: functional; details: read-out: GI
# Beta vulgaris [9] = assay: Herbicidal activity against Beta vulgaris assessed as relative growth inhibition at 450 g/ha in greenhouse by post-emergence herbicidal activity assay; format: functional; details: read-out: GI
# [10] = system: Brassica rapa subsp. oleifera; assay: Herbicidal activity against Brassica rapa subsp. oleifera assessed as inhibition of rape root growth at 450 g/ha by postemergence herbicidal activity assay; format: functional; details: post-emergence, read-out: GI
# [11] = system: Brassica rapa subsp. oleifera; assay: Herbicidal activity against two to three-leaf stage Brassica rapa subsp. oleifera assessed as inhibition of plant growth at 150 g/ha in greenhouse by postemergence herbicidal activity assay; format: functional; details: post-emergence, read-out: GI
# Amaranthus blitum [12] = assay: Herbicidal activity against Amaranthus blitum assessed as relative growth inhibition at 300 g/ha in greenhouse by post-emergence herbicidal activity assay; format: functional; details: read-out: GI
# [13] = system: Brassica rapa subsp. oleifera; assay: Herbicidal activity against Brassica rapa subsp. oleifera assessed as inhibition of rape root growth; format: functional, organism-based
# Amaranthus spinosus [14] = assay: Herbicidal activity against Amaranthus spinosus assessed as relative growth inhibition at 100 g/ha in greenhouse by postemergence herbicidal activity assay; format: functional; details: post-emergence, read-out: GI
# Chenopodium album [15] = assay: Herbicidal activity against Chenopodium album assessed as relative growth inhibition at 300 g/ha in greenhouse by post-emergence herbicidal activity assay; format: functional; details: read-out: GI
# [16] = Toxicity in orally dosed Rattus norvegicus (rat); format: organism-based; details: in vivo, po
# Amaranthus retroflexus [17] = assay: Herbicidal activity against 2 to 3 leaf stage Amaranthus retroflexus assessed as inhibition of plant growth at 150 g/ha in greenhouse by postemergence herbicidal activity assay; format: functional; details: post-emergence, read-out: GI
# [18] = Inhibition of Oryza sativa (rice) PDHc by spectrophotometric assay
# Chenopodium album [19] = assay: Herbicidal activity against Chenopodium album assessed as relative growth inhibition at 600 g/ha in greenhouse by post-emergence herbicidal activity assay; format: functional; details: read-out: GI
# Amaranthus spinosus [20] = assay: Herbicidal activity against Amaranthus spinosus assessed as relative growth inhibition at 900 g/ha in greenhouse by postemergence herbicidal activity assay; format: functional; details: post-emergence, read-out: GI
# Chenopodium album [21] = assay: Herbicidal activity against Chenopodium album assessed as relative growth inhibition at 1200 g/ha in greenhouse by post-emergence herbicidal activity assay; format: functional; details: read-out: GI
# Zea mays [22] = assay: Herbicidal activity against Zea mays (maize) assessed as relative growth inhibition at 1200 g/ha in greenhouse by postemergence herbicidal activity assay; format: organism-based; details: in vivo, other
# Amaranthus blitum [23] = assay: Herbicidal activity against Amaranthus blitum assessed as relative growth inhibition at 600 g/ha in greenhouse by post-emergence herbicidal activity assay; format: functional; details: read-out: GI
# Amaranthus spinosus [24] = assay: Herbicidal activity against Amaranthus spinosus assessed as relative growth inhibition at 300 g/ha in greenhouse by postemergence herbicidal activity assay; format: functional; details: post-emergence, read-out: GI
# [25] = target: T1, Pyruvate dehydrogenase complex (Pisum sativum, UniProt P52902+P52904); assay: Inhibition of Pisum sativum (pea) PDHc by spectrophotometric assay; format: protein-complex assay, Lathyrus oleraceus
# T1 sequence (P52902 whole entry): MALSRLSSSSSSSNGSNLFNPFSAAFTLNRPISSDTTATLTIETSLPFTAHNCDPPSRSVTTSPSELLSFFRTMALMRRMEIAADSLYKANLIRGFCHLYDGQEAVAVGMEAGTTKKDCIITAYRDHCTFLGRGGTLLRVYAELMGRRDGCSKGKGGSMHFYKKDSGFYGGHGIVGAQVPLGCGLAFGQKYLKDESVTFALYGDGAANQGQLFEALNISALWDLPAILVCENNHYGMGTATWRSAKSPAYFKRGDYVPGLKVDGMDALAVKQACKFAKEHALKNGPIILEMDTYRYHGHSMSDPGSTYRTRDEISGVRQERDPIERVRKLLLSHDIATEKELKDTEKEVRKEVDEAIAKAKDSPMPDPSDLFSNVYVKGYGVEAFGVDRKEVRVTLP
# T1 sequence (P52904 whole entry): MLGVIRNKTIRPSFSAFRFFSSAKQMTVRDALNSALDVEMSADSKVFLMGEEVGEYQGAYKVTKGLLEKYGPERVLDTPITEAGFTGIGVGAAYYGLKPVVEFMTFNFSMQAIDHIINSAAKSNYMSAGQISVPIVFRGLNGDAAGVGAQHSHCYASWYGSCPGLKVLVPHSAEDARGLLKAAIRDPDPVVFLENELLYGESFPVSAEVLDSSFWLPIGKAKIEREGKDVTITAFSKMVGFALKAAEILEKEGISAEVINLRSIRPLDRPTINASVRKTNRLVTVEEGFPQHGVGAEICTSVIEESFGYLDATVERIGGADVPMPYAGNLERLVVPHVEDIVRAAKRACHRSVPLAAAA
# Polygonum aviculare [26] = assay: Herbicidal activity against Polygonum aviculare assessed as relative growth inhibition at 50 g/ha in greenhouse by post-emergence herbicidal activity assay; format: functional; details: read-out: GI
# Chenopodium album [27] = assay: Herbicidal activity against Chenopodium album assessed as relative growth inhibition at 200 g/ha in greenhouse by post-emergence herbicidal activity assay; format: functional; details: read-out: GI
# Polygonum aviculare [28] = assay: Herbicidal activity against Polygonum aviculare assessed as relative growth inhibition at 1200 g/ha in greenhouse by post-emergence herbicidal activity assay; format: functional; details: read-out: GI
# Chenopodium album [29] = assay: Herbicidal activity against Chenopodium album assessed as relative growth inhibition at 100 g/ha in greenhouse by post-emergence herbicidal activity assay; format: functional; details: read-out: GI
# Brassica juncea = assay: Herbicidal activity against two to three-leaf stage Brassica juncea assessed as inhibition of plant growth at 450 g/ha in greenhouse by post-emergence herbicidal activity assay; format: functional; details: read-out: GI
# Beta vulgaris [30] = assay: Herbicidal activity against Beta vulgaris assessed as relative growth inhibition at 300 g/ha in greenhouse by post-emergence herbicidal activity assay; format: functional; details: read-out: GI
# Amaranthus retroflexus [31] = assay: Herbicidal activity against 2 to 3 leaf stage Amaranthus retroflexus assessed as inhibition of plant growth at 450 g/ha in greenhouse by postemergence herbicidal activity assay; format: functional; details: post-emergence, read-out: GI
# Polygonum aviculare [32] = assay: Herbicidal activity against Polygonum aviculare assessed as relative growth inhibition at 600 g/ha in greenhouse by post-emergence herbicidal activity assay; format: functional; details: read-out: GI
structure (smiles),measurement,setting,value
COP(=O)(OC)C(OC(=O)COc1ccc(Cl)cc1Cl)c1ccco1 (stereo not given),inhibition of growth at 900 g/ha,Polygonum aviculare [1],100%
same,inhibition of growth at 300 g/ha,Polygonum aviculare [2],91%
same,inhibition of growth at 50 g/ha,Chenopodium album [3],80%
same,growth inhibition (GI),Oryza sativa,0%
same,LD50,[4],> 2000 mg/kg
same,inhibition of growth at 200 g/ha,Beta vulgaris [5],98%
same,inhibition of growth at 50 g/ha,Beta vulgaris [6],80%
same,inhibition of growth at 150 g/ha,Abutilon theophrasti,95%
same,growth inhibition (GI),Zea mays [7],0%
same,inhibition of growth at 200 g/ha,Amaranthus blitum [8],100%
same,inhibition of growth at 450 g/ha,Beta vulgaris [9],100%
same,inhibition of growth at 450 g/ha,[10],92%
same,inhibition of growth at 150 g/ha,[11],95%
same,inhibition of growth at 300 g/ha,Amaranthus blitum [12],100%
same,IC50,[13],0.0418 µM
same,inhibition of growth at 100 g/ha,Amaranthus spinosus [14],90%
same,inhibition of growth at 300 g/ha,Chenopodium album [15],100%
same,LD50,[16],2700 mg/kg
same,inhibition of growth at 150 g/ha,Amaranthus retroflexus [17],95%
same,IC50,[18],704 µM
same,inhibition of growth at 600 g/ha,Chenopodium album [19],100%
same,inhibition of growth at 900 g/ha,Amaranthus spinosus [20],100%
same,inhibition of growth at 1200 g/ha,Chenopodium album [21],100%
same,growth inhibition (GI),Zea mays [22],10%
same,inhibition of growth at 600 g/ha,Amaranthus blitum [23],100%
same,inhibition of growth at 300 g/ha,Amaranthus spinosus [24],98%
same,IC50,[25],28.3 µM
same,inhibition of growth at 50 g/ha,Polygonum aviculare [26],70%
same,inhibition of growth at 200 g/ha,Chenopodium album [27],100%
same,inhibition of growth at 1200 g/ha,Polygonum aviculare [28],100%
same,inhibition of growth at 100 g/ha,Chenopodium album [29],90%
same,inhibition of growth at 450 g/ha,Brassica juncea,96.5%
same,inhibition of growth at 300 g/ha,Beta vulgaris [30],98%
same,inhibition of growth at 450 g/ha,Amaranthus retroflexus [31],100%
same,inhibition of growth at 600 g/ha,Polygonum aviculare [32],100%
